Source: US20100204141A1, “USE OF BPP-B AS A THERAPEUTIC AGENT” (priority 2007, published 2010)
Square brackets hold non-standard residues; d marks the D form. Peptide text beside a SMILES is read from it. pGlu = O=C1CC[C@@H](C(=O)O)N1

Tested on: drug-resistant Mycobacterium tuberculosis
Conditions: 5 micrograms per ml

Structure (SMILES): CC[C@H](C)[C@H](NC(=O)[C@H](CCCCN)NC(=O)[C@@H]1CCCN1C(=O)[C@H](CCCNC(=N)N)NC(=O)[C@@H]1CCCN1C(=O)[C@@H]1CCCN1C(=O)[C@H](CC(C)C)NC(=O)CNC(=O)[C@@H]1CCC(=O)N1)C(=O)N1CCC[C@H]1C(=O)N1CCC[C@H]1C(=O)O [Bradykinin potentiator B, Pyr-Gly-Leu-Pro-Pro-Arg-Pro-Lys-Ile-Pro-Pro-OH] ([pGlu]GLPPRPKIPP-OH)
- % inhibition: 0.0%
